Literature values in patent publication US8933112B2, “Topical liquid to ameliorate pain and promote healing of burn-injured skin” (Memphaceuticals, LLC, priority 2012, dated 2015).

Key:
human T lymphocytes = details: by blocking Ca2+-sensitive K+ channels
[1] = test system: Ca^2+-dependent K^+ channels of human red blood cells, rat thymocytes, and Ehrlich ascites tumor cells; details: among tioconazole, miconazole, econazole, clotrimazole
[2] = test system: Lewis lung carcinoma cells and CT-26 colon adenocarcinoma cells
[3] = target: T1, 6-phosphofructo-1-kinase (PFK) (Oryctolagus cuniculus, UniProt P00511); details: independent of anti-calmodulin activity
T1 sequence (P00511 2-780 limits assumed): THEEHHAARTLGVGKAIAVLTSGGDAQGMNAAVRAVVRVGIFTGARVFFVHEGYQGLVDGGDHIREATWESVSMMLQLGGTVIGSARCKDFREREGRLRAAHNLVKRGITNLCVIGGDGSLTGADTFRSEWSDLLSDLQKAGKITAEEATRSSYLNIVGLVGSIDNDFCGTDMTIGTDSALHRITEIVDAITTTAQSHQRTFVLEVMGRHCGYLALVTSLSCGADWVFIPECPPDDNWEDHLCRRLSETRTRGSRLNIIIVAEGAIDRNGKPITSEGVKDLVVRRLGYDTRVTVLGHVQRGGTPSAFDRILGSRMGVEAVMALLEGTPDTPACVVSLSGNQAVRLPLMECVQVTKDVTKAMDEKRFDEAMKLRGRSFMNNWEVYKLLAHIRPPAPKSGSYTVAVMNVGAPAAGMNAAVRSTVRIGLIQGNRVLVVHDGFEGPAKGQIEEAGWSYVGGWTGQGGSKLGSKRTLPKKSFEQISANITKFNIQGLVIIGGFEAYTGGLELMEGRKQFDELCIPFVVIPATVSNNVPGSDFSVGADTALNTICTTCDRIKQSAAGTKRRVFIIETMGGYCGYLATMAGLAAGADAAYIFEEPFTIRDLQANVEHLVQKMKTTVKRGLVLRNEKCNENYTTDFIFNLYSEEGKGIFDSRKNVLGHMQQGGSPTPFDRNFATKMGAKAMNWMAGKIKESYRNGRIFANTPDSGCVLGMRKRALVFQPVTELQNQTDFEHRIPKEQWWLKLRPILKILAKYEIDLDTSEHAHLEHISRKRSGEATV

[4] = target: T2, nitric-oxide synthase in bovine brain (Bos taurus, UniProt A0A3Q1M6M2)
T2 construct: nitric-oxide synthase in bovine brain; host or cells: bovine brain
T2 sequence (A0A3Q1M6M2 1-1468): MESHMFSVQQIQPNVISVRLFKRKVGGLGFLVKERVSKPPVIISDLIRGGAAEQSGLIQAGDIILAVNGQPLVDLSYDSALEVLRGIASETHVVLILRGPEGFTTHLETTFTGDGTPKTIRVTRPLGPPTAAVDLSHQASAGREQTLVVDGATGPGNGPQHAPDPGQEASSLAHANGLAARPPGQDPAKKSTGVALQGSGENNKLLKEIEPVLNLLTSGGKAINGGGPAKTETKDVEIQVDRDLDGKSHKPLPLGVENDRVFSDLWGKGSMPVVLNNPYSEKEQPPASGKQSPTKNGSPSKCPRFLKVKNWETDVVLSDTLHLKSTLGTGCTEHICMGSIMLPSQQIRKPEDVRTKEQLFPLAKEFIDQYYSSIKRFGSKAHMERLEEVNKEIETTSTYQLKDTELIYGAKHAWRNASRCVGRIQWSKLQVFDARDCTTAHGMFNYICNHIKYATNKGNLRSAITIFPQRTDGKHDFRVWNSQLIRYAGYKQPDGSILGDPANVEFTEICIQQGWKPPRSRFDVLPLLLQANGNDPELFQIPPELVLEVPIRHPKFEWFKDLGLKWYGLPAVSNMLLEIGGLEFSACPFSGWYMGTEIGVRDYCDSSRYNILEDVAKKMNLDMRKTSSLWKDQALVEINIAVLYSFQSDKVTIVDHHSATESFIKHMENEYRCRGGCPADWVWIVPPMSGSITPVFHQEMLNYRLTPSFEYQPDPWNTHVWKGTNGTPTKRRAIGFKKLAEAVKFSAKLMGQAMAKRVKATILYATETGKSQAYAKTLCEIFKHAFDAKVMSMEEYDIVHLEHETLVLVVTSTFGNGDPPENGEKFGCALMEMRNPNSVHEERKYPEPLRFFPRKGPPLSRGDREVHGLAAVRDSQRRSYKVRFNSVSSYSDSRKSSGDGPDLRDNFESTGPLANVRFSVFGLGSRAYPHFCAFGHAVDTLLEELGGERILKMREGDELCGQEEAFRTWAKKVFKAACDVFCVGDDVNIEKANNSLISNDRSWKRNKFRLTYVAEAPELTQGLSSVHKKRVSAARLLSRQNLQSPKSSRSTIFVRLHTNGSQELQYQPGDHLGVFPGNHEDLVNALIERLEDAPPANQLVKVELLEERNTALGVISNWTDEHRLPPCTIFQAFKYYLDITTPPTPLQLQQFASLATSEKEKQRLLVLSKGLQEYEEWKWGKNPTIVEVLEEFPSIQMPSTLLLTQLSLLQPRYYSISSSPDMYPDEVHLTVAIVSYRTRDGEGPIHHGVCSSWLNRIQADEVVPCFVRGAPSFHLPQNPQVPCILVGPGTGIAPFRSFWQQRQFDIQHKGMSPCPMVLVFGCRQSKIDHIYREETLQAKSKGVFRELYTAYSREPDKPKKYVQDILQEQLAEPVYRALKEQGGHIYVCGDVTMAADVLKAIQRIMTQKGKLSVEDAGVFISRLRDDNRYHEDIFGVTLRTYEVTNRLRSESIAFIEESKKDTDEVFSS

## Clc1ccccc1C(c1ccccc1)(c1ccccc1)n1ccnc1 [clotrimazole, 1-(o-chloro-α,α-diphenylbenzyl)imidazole]
Human T lymphocytes
  activation of human T lymphocytes: inhibits activation
[1]
  inhibition of Ca2+-dependent K+ channels: most potent inhibitor
[2]
  levels of glucose 1,6-bisphosphate, fructose 1,6-bisphosphate, ATP, and cell viability: significant reduction
[3]
  inhibition of PFK: directly inhibits
[4]; bovine brain
  citrulline formation by nitric-oxide synthase: inhibited citrulline formation
[4]; calmodulin-dependent fashion
  cytochrome-c reductase activity of nitric-oxide synthase: inhibited the cytochrome-c reductase activity
